Data on twelve compounds can be found in US8202893B2, “Cannabinergic lipid ligands” (University of Connecticut, priority 2004, dated 2012).

Read-outs that look alike come from different tables or passages of the source.

For one assay, the target named is T1, CB2 receptor (Mus musculus, UniProt P47936).
T1 construct: membranes were prepared from frozen mouse spleen; from tissue; host or cells: mouse spleen
The experiment in a line: CB2 receptor binding, [3H]CP-55,940 displacement. To be noted: mouse spleen membranes.

The target of a further assay is T2, CB1 cannabinoid receptor (Rattus norvegicus, UniProt P20272).
T2 construct: membranes were prepared from rat forebrain membranes; from tissue; host or cells: rat forebrain
T2 sequence (P20272 whole entry): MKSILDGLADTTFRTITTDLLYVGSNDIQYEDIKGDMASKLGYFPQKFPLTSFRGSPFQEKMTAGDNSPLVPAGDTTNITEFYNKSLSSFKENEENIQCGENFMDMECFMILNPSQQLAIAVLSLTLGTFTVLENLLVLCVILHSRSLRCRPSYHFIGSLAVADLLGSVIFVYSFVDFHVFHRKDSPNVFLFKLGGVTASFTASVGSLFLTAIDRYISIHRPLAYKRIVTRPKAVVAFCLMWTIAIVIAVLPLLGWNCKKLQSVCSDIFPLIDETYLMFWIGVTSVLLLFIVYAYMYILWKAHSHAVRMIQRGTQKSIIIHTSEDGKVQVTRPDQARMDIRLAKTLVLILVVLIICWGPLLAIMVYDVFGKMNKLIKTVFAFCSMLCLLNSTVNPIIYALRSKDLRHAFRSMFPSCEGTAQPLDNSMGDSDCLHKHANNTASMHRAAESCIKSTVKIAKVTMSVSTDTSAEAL
The assay is described as follows: CB1 receptor binding, [3H]CP-55,940 displacement. The note with it: rat forebrain membranes.

The target in assay [1] is T3, FAAH (fatty acid amide hydrolase) (Rattus norvegicus, UniProt P97612).
T3 construct: Anandamide Amidase Activity in Rat Brain Microsomes; from tissue; host or cells: rat brain microsomes (by the cited procedure)
T3 sequence (P97612 1-579): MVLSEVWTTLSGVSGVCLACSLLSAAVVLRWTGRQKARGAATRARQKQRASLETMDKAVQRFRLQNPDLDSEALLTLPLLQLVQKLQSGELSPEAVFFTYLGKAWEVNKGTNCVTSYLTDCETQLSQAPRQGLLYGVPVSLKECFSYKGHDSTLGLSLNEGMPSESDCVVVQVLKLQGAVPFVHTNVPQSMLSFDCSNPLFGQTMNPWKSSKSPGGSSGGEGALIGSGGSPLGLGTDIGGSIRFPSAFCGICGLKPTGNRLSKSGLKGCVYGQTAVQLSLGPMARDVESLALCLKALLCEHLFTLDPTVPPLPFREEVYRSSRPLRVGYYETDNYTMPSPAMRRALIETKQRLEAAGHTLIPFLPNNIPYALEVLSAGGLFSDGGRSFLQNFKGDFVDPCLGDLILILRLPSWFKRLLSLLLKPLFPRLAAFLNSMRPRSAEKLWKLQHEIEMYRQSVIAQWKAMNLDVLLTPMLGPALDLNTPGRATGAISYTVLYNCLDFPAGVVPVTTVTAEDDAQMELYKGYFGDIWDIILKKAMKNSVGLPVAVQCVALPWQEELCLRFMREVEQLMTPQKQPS
The experiment in a line: FAAH screening: inhibition of anandamide metabolism to arachidonic acid. It counts as biochemical. The note with it: 25 nmoles compound with 25 nmoles AEA, 75 μg enzyme, 250 μL, 15 min. As for the experimental part: The FAAH (fatty acid amide hydrolase) enzyme preparation was obtained according to the procedure of Lang and Makriyannis et al High Performance Liquid Chromatographic Determination of Anandamide Amidase Activity in Rat Brain Microsomes, Analytical Biochemistry (238): 40-45, 1996.
All compound solutions were made to a concentration of 10 mM in DMSO. Three tests were performed on each compound: hydrolysis, to determine the stability of the compound in assay conditions without the enzyme present; metabolism, to determine the stability of the compound with the enzyme present; and inhibition of anandamide (native substrate) metabolism to arachidonic acid.
Again the reaction mixture was treated in the same manner as described above and the concentrations of AEA and AA were calculated using external standards. Percent inhibition was calculated using the following equation: % Inhib.=(AA15-AA0)i/(AA15-AA0)s where (AA15-AA0)c is the amount of arachidonic acid formed over 15 minutes from AEA with the inhibitor present and (AA15-AA0)s is the amount of arachidonic acid formed over 15 minutes from AEA when the inhibitor is not present. […] The reaction mixtures were treated as described above and the amount of AA formed was calculated. The software package GraphPad Prism was utilized to calculate IC50 and Ki. HPLC Conditions:
Chromatographic separation was achieved using an Ultrasphere ODS Pre-column (4.6×45 mm) from Beckman. Hardware consisted of a Waters Millennium HPLC system with a 20 μL injection loop. The mobile phase consisted of 8.5% o-phosphoric acid:acetonitrile (3:7), run isocratically at a rate of 1 mL/min and detection at 204 nm. The total run time was 8 minutes with AEA eluting at 2.2 minutes and AA at 6.0 minutes.

Where [2] appears, read: with PMSF (second value of cell), read-out: Ki CB1 (nM) (o/w PMSFQ).
Where [3] appears, read: without PMSF (first value of cell), read-out: Ki CB1 (nM) (o/w PMSFQ).
Setting [4] is: with PMSF (second value of cell), read-out: Ki CB1 (nM) (o/w PMSF).
The mark [5] stands for this setting: without PMSF (first value of cell), read-out: Ki CB1 (nM) (o/w PMSF).

T1 sequence (P47936 whole entry): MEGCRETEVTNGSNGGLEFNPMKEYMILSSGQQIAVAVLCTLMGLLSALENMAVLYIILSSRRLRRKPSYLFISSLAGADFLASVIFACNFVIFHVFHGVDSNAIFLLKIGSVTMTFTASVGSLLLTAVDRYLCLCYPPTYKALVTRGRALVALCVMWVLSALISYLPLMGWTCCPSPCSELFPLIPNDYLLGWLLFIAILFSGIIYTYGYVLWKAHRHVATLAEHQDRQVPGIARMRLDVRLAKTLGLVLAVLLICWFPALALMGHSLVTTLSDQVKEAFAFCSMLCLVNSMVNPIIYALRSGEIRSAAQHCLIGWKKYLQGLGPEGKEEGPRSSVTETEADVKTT

On to `O=C(CCC/C=C\C/C=C\C/C=C\C/C=C\CCCCc1ccccc1)NCC1CC1` [Compound A1], for which the figures for the Ki at CB2 receptor, on CB1 cannabinoid receptor (setting [2]) and on CB1 cannabinoid receptor (setting [3]) were 177 nM, 153 nM and 94.6 nM, respectively. The “FAAH % Inhibition” value in assay [1] is listed as 23%.
Consider `O=C(CCC/C=C\C/C=C\C/C=C\C/C=C\CCc1ccccc1)NCC1CC1` [Compound A2], for which the values for the Ki on CB2 receptor, on CB1 cannabinoid receptor (setting [2]) and at CB1 cannabinoid receptor (setting [3]) were 171 nM, 129 nM and 729 nM, respectively. The “FAAH % Inhibition” value in assay [1] is recorded as 32%.
The matching figures for `O=C(CCC/C=C\C/C=C\C/C=C\C/C=C\CCc1ccccc1)Nc1ccc(O)cc1` [Compound A3]: 83.3 nM, 58.6 nM, 183 nM and 34%.
As for `O=C(CCC/C=C\C/C=C\C/C=C\C/C=C\CCc1ccccc1)Nc1nccs1` [Compound A4], the Ki came out at 1230 nM at CB2 receptor, 84.3 nM at CB1 cannabinoid receptor (setting [2]) and 1180 nM on CB1 cannabinoid receptor (setting [3]). Besides, the “FAAH % Inhibition” value in assay [1] is given as 58%.
For the compound `[N-]=[N+]=NCCCC/C=C\C/C=C\C/C=C\C/C=C\CCCC(=O)NCC1CC1` [Compound A6], the Ki at CB2 receptor was determined as 426 nM; on CB1 cannabinoid receptor (setting [2]), 114 nM; on CB1 cannabinoid receptor (setting [3]) it was 195 nM. Moreover, the “FAAH % Inhibition” value in assay [1] is listed as 11%.
With `COc1cc(CNC(=O)CCC/C=C\C/C=C\C/C=C\C/C=C\CCCCN=[N+]=[N-])ccc1O` [Compound A7], the Ki turned out to be 302 nM at CB2 receptor, 80.5 nM on CB1 cannabinoid receptor (setting [2]) and 165 nM at CB1 cannabinoid receptor (setting [3]). For the same compound, the “FAAH % Inhibition” value in assay [1] is reported as 46%.
`COc1cc(CNC(=O)CCC/C=C\C/C=C\C/C=C\C/C=C\CCCCN=C=S)ccc1O` [Compound A12]: the Ki at CB2 receptor came out at 553 nM; at CB1 cannabinoid receptor (setting [2]) it was 136 nM; on CB1 cannabinoid receptor (setting [3]), 193 nM. Besides, the “FAAH % Inhibition” value in assay [1] is reported as 39%.
The matching figures for `O=C(CCC/C=C\C/C=C\C/C=C\C/C=C\CCCCCBr)NC1CC1` [Compound A18]: 12.3 nM, 0.16 nM, 25.1 nM and 72%.
In the case of `CCCCCC=CCC=CCC=CCC=CCCCCOC(=O)NCC(C)O` (stereo not drawn) [Compound B3], the Ki at CB2 receptor was 597 nM; on CB1 cannabinoid receptor (setting [4]), 396 nM; on CB1 cannabinoid receptor (setting [5]) it was 526 nM. For the same compound, the “FAAH % Inhibition” value in assay [1] turned out to be 10%.
Turning to `CCCCC/C=C\C/C=C\C/C=C\C/C=C\CCCCNC(=O)NC[C@H](C)O` [Compound B12], the Ki at CB2 receptor turned out to be 242 nM; on CB1 cannabinoid receptor (setting [4]), 126 nM; at CB1 cannabinoid receptor (setting [5]) it was 380 nM. Moreover, the “FAAH % Inhibition” value in assay [1] is 17.2%.
The like results for `CCCCC/C=C\C/C=C\CCCCCCCCOC(=O)NC[C@H](C)O` [Compound B14] were, in that order, 2250 nM, 405 nM, 1350 nM and 1.20%.
The like results for `CC/C=C\C/C=C\C/C=C\CCCCCCCCOC(=O)NC[C@H](C)O` [Compound B15] were, in that order, 422 nM, 481 nM, 622 nM and 6.96%.
